Experimental data reported in paper PMC10374545, “A small molecule inhibitor of PTP1B and PTPN2 enhances T cell anti-tumor immunity” (Nature Communications, 2023).
Values joined by “and” are separate entries in the source; they are usually repeats but may differ in a detail not shown here. Equal values may be shown once.

Assays:
PTPN2 = molecular target: T1, PTPN2 (Homo sapiens, UniProt P17706); experiment: Mode of inhibition and Ki, Lineweaver-Burk kinetic analysis with DiFMUP; format: biochemical
T1 construct: PTPN2, residues 1-387; made in house; host or cells: E. coli BL21(DE3)
T1 sequence (P17706 1-387 isoform P17706-2): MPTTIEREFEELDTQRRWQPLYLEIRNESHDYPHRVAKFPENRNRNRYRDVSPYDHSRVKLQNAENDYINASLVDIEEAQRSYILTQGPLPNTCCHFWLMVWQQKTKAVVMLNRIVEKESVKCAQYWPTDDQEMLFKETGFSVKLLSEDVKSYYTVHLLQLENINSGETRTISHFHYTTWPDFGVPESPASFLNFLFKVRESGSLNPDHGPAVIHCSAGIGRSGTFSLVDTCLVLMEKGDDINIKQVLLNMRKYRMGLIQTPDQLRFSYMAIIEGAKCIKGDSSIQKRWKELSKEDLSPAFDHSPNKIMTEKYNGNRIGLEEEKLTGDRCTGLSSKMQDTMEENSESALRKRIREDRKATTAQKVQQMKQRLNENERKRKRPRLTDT
Description: To determine the mode of inhibition, the reactions were initiated by the addition of enzyme (final concentration for PTP1B and PTPN2 was 0.05 nM) to the reaction mixtures (0.2 ml) containing various concentrations of DiFMUP with different concentrations of the inhibitor. The reaction was allowed to proceed for 10 min and then quenched by the addition of 40 µl of a 160 µM solution of bpV(Phen) (Sigma-Aldrich, cat# SML0889). The fluorescence signal was measured using a CLARIOstar Plus Microplate Spectrophotometer (BMG Labtech) using excitation and emission wavelength of 340 nm and 450 nm, respectively. Data were fitted using Prism GraphPad 9.2.0. For selectivity studies, the inhibition assay for other PTPs were performed under the same conditions as used for PTP1B and PTPN2 except with different DiFMUP concentration corresponding to the Km of the PTP studied.

AT3 mammary tumors = experiment: Tumor-infiltrating lymphocytes in AT3 tumors; format: in vivo, mouse; set-up: CD4 EM, individual mice / CD8 EM, individual mice / GRZMB, individual mice / B cells, individual mice / NK cells, individual mice / Tregs, individual mice / MDSCs, individual mice: unit not given here
Description: (§1) Tumor-bearing mice were sacrificed and tumors were excised and digested at 37 °C for 30 min using a cocktail of 1 mg/ml collagenase type IV (Worthington Biochemicals) and 0.02 mg/ml DNase I (Sigma-Aldrich) in DMEM supplemented with 2% (v/v) FBS. Cells were passed through a 70 μm cell strainer (BD Biosciences) twice and processed for flow cytometry. For assessing T cell activation, cells were surface stained with fluorophore-conjugated antibodies to CD62L, CD44, PD-1, and TIM-3. For the assessment of NK cells, B cells, myeloid-derived suppressor cells (MDSCs), dendritic cells (DCs), and tumor-associated macrophages, cells were surface stained with fluorophore-conjugated antibodies to NK1.1, TCRβ, CD19, CD11b, CD11c, F4/80, Ly6C and Ly6G. For the detection of intracellular cytokines TNF and IFNγ, T cells were stimulated with PMA (20 ng/ml; Sigma-Aldrich) and ionomycin (1 μg/ml; Sigma-Aldrich) in the presence of GolgiPlug™ and GolgiStop™ (BD Biosciences) for 4 h at 37 °C in complete T cell medium. For the intracellular detection of granzyme B, cells were processed untreated without the addition of BD GolgiPlug™ and BD GolgiStop™.

spleen = experiment: Spleen weight, splenocytes and splenic CD8+ EM T cell signaling in AT3-OVA tumor-bearing mice; format: in vivo, mouse
Description: Single-cell suspensions from spleens and lymph nodes were obtained as described previously. For the detection of intracellular cytokines and granzyme B, T cells were fixed and permeabilized with the BD Cytofix/Cytoperm kit according to the manufacturer’s instructions. Briefly, T cells were first surface stained with fluorophore-conjugated antibodies and then fixed followed by permeabilization on ice for 20 min. Fixed and permeabilized cells were stained for IFN-γ, TNF, and granzyme B for 45 min at room temperature. For the detection of intracellular FoxP3 the Foxp3/Transcription Factor Staining Buffer Set (eBioscience) was used according to the manufacturer’s instructions. Briefly, cells were fixed and permeabilized for 1 h on ice followed by intracellular staining at room temperature for 45 min. For the detection of serum cytokines, the BD CBA Mouse Inflammation Kit™ was used according to the manufacturers’ instructions.
Cells (1 × 10^6/10 µl) were stained with the specified antibodies on ice for 30 min in D-PBS supplemented with 2% FBS in the dark and analyzed using a Fortessa or Symphony A3 (BD Biosciences). Data was acquired using BD FACS DIVA Software v8.0.1 and analyzed using FlowJo10 (Tree Star Inc.) software. Lymphocytes were gated for eYFP^+ cells to discriminate between PTPN2 sufficient and PTPN2 negative cells after poly(I:C)-induced PTPN2-deletion in Mx1-Cre;Ptpn2^fl/fl mice. For cell quantification, known numbers of Flow-Count Fluorospheres (Beckman Coulter) were added to samples before analysis. Dead cells were excluded with propidium iodide (1 μg/ml; Sigma-Aldrich). Paraformaldehyde fixed dead cells were excluded with the LIVE/DEAD™ Fixable Near-IR Dead Cell Stain Kit (Thermo Fisher Scientific).
OVA mammary tumor cells were injected into the fourth inguinal mammary fat pads of 8 week- […]
n=8) or saline (n=8) on days (d) 6, 8, 10, 12, 14, 16, 18 and 21 after tumor cell implantation. […]
CD44hiCD62Llo CD8+ and CD4+ effector/memory (EM) T cells, CD4+CD25+FoxP3+ regulatory T cells (Tregs) and granulocytic and monocytic […]
CD8+ and CD4+ EM T cells were analysed by flow cytometry. In (a-d) representative results (means ± SEM) from at least two independent experiments are shown. In (d) significances were determined using a 1-way ANOVA Test.

AT3-OVA mammary tumors = experiment: Tumor-infiltrating lymphocytes in AT3-OVA tumors of Lck-Cre;Ptpn2fl/fl mice; format: in vivo, mouse; set-up: NK cells / Tregs / MDSCs / CD4 EM / CD8 EM / B cells / IFNg TNF / GRZMB: unit not given here
Description: as §1

[1] = AT-3 tumours, Figure 4E, listed as CMP-182
[2] = AT-3 tumours, Figure 4F, listed as CMP-182
[3] = splenic CD8+ EM T cells, 10 mg/kg i.v., Fig. 3E raw data, listed as CMP-182, 10 mg/kg
[4] = Lck-Cre;Ptpn2fl/fl mice, individual mice (Figure 7D), listed as CMP-182
[5] = tumour-infiltrating cells, Lck-Cre;Ptpn2fl/fl mice n=6, individual mice (Figure 7C), listed as CMP-182

For CC(C)(O)CCOc1ccc2cc(O)c(N3CC(=O)NS3(=O)=O)c(F)c2c1 [Compound 182, 5-(1-Fluoro-3-hydroxy-7-(3-hydroxy-3-methylbutoxy)naphthalen-2-yl)−1,2,5-thiadiazolidin-3-one 1,1-dioxide], the mode of inhibition (PTPN2; Lineweaver-Burk) was “classic competitive inhibitor”, the Ki (PTPN2; varying inhibitor and DiFMUP, steady state) was 0.26 ± 0.02 nM and the “TILs in AT3 tumors” value (AT3 mammary tumors; 10 mg/kg i.v.) was “increased TILs”. For the same compound, the “CD4 EM, individual mice” value (AT3 mammary tumors; [1]) was 3726.1 and 1503.32 and 2365.26 and 3607.46 and 1559.09, the “CD8 EM, individual mice” value (AT3 mammary tumors; [1]) was 36747.8 and 11580.8 and 23763.5 and 22145.6 and 15367.2 and the “GRZMB, individual mice” value (AT3 mammary tumors; [1]) was 38 and 29.8 and 32 and 36.3 and 27.7. For the same compound, the “PD-1 TIM-3, individual mice” value (AT3 mammary tumors; [1]) was 17.7 and 30.7 and 29.6 and 26.7 and 38, the “B cells, individual mice” value (AT3 mammary tumors; [2]) was 10773 and 2554.29 and 3750.15 and 13582.9 and 3202.26 and the “MDSCs, individual mice” value (AT3 mammary tumors; [2]) was 17269.7 and 11457.4 and 14297.5 and 10691.6 and 5468.87. The “NK cells, individual mice” value (AT3 mammary tumors; [2]) was 10197.4 and 4505.05 and 4177.56 and 6667.39 and 3703.02, the “Tregs, individual mice” value (AT3 mammary tumors; [2]) was 857.48 and 533.579 and 888.636 and 1675.89 and 531.261 and the “basal p-SFK and p-STAT-5 in splenic CD8+ effector/memory T cells” value (spleen; 10 mg/kg i.v.) was “enhanced”. For the same compound, the “spleen weights and splenic T cell and myeloid numbers” value (spleen; AT3-OVA tumor-bearing mice, 10 mg/kg i.v.) was “unaltered”, the “B cells Spleen (median)” value (spleen; Figure 3C, column B, n=8) was 1202070, n=8 and the “Nk cells Spleen (median)” value (spleen; Figure 3C, column B, n=8) was 1062533, n=8. The “pSFK CD8 EM (median)” value (spleen; Figure 3E, column B, n=8) was 356.5, n=8, the “pSTAT5 CD8 EM (median)” value (spleen; Figure 3E, column B, n=8) was 960.5, n=8 and the “p-SFK MFIs, single mice” value (spleen; [3]) was 362 and 359 and 441 and 347 and 414 and 282 and 298 and 354. For the same compound, the “p-STAT-5 MFIs, single mice” value (spleen; [3]) was 1043 and 825 and 973 and 931 and 1046 and 926 and 948 and 1137, the “IFNγ+TNF+ infiltrating CD8+ T cells in Lck-Cre;Ptpn2fl/fl mice” value (AT3-OVA mammary tumors; 10 mg/kg i.v.) was “significantly increased” and the GRZMB (AT3-OVA mammary tumors; [4]) was 75.7 and 29.8 and 80.2 and 60 and 76.3 and 38.3. For the same compound, the “IFNg TNF” value (AT3-OVA mammary tumors; [4]) was 26.1 and 36.3 and 38 and 37.5 and 35.3 and 36.7, the “TILs in AT3-OVA tumors of Lck-Cre;Ptpn2fl/fl mice” value (AT3-OVA mammary tumors; compared with untreated Lck-Cre;Ptpn2fl/fl mice) was “not accompanied by any significant changes” and the B cells (AT3-OVA mammary tumors; [5]) was 170392 and 46995.6 and 105275 and 126695 and 155871 and 80840.6. The “CD4 EM” value (AT3-OVA mammary tumors; [5]) was 52213.7 and 43853.2 and 131869 and 64047.3 and 133510 and 49758.5, the “CD8 EM” value (AT3-OVA mammary tumors; [5]) was 137803 and 79204.9 and 701666 and 167038 and 463610 and 106200 and the MDSCs (AT3-OVA mammary tumors; [5]) was 220000 and 235417 and 32287.6 and 56721.3 and 90563.2 and 25765.3. For the same compound, the NK cells (AT3-OVA mammary tumors; [5]) was 58097.7 and 15907.7 and 22173.4 and 86915 and 66469.7 and 20906.1 and the Tregs (AT3-OVA mammary tumors; [5]) was 31347.8 and 26539.2 and 15097.8 and 25883.4 and 26206.9 and 21641.1.
